One series deals with cancer cells. As to conditions: cited from earlier work.
The nature of series [1]: Phantom study, 3T MRI scanner (relaxivity). The protocol: The measured r1 and r2 relaxivity values of NEMO-103 were 2.0 mM^-1s^-1 and 2.3 mM^-1s^-1, respectively (FIGS. 24d and 24e). The r2/r1 ratio, which is an important parameter for T1 MRI contrast agents, was calculated to be 1.15. […] For comparison, the measured r1 and r2 values of Dotarem® were 4.7 mM^-1s^-1 and 5.2 mM^-1s^-1, respectively, resulting in an r2/r1 ratio of 1.11.

Series [2] in a line: Shoulder MR arthrography image quality assessment, clinical comparative study NEMO-103 vs GBCA. Format: in vivo, humans. As to conditions: supine position, over time. The protocol: FIGS. 25 and 26 illustrate the phase design and image quality assessment method of a clinical comparative study between NEMO-103, a dextran-crosslinked T1 MRI contrast agent, and Dotarem®, a representative clinical gadolinium-based contrast agent (GBCA) for T1 MRI. Phase I refers to MR arthrography (MRA) images acquired within 30 minutes after contrast agent administration. Phase II refers to MRA images acquired between 30 and 60 minutes post-administration, and Phase III refers to MRA images acquired between 110 and 130 minutes post-administration. In Comparison 1, no quantitative or qualitative differences were observed between NEMO-103-based MRA images acquired during Phase I and Phase II (FIG. 27). […] In Comparison 3, which compared NEMO-103-based MRA images from Phase II with GBCA-based MRA images, more prominent differences were observed (FIG. 29).
Amid growing safety concerns surrounding gadolinium-based contrast agents (GBCAs), iron (Fe)-based alternatives have emerged as a subject of active investigation. The present example evaluates the efficacy of NEMO-103 in comparison with a GBCA by assessing contrast-to-noise ratio (CNR) and MR arthrography (MRA) image quality. […] Both contrast agents effectively delineated key anatomical structures, including tissue contrast, sharpness, rotator cuff tendons, labral structures, and adjacent cartilage. […]

The conditions of series [3]: stated in discussion, according to current reports; cited from earlier work.
Series [4] relates to BT-474 human breast cancer xenograft model. Briefly: In vivo antitumor efficacy in cancer xenograft mouse model (intratumoral injection, tumor volume). The conditions noted are these: alone; Doxorubicin 2 mg/kg; TLRA1 agonist 6 nmol/mL (0.3 nmol). Also noted: species or system Balb/c nude mice. The protocol:
The antitumor efficacy of the drug was assessed by monitoring changes in tumor volume following administration. Cdex@TLRA1 and Cdex@TLRB1 were administered in a cancer xenograft mouse model to evaluate antitumor immune responses and subsequent tumor cell death.
Balb/c nude mice (6 weeks old) were used to establish a BT-474 human breast cancer xenograft model for in vivo efficacy evaluation. Approximately 1 × 10^6 BT-474 breast cancer cells were mixed with Matrigel at a 1:1 volume ratio and subcutaneously implanted into the dorsal flank of each mouse in a volume of approximately 100 µL.
Once tumor volumes reached approximately 50 mm^3, Cdex@TLRA1 and Cdex@TLRB1 were directly injected into the tumor masses, and tumor growth was monitored over a 2-week period to evaluate drug efficacy. The test substances were administered on days 0, 4, 7, 12, and 15 (see FIG. 18a). To enhance antitumor effects, doxorubicin was administered to all groups except the negative control group on days 1 and 9. A separate "doxorubicin only" group was included for comparative purposes (see FIG. 18b and Table 6).

For `CC[C@@]1(O)C(=O)OCc2c1cc1n(c2=O)Cc2c-1nc1cc(F)c(C)c3c1c2[C@@H](N)CC3` [DXd, exatecan], the “activity in cancer cells compared to SN-38” value in the series with cancer cells is on record as “approximately 10 fold”.
Turning to `CNC[C@H](O)[C@@H](O)[C@H](O)[C@H](O)CO.O=C([O-])CN1CCN(CC(=O)[O-])CCN(CC(=O)O)CCN(CC(=O)[O-])CC1.[Gd+3]` [Dotarem], the r1 relaxivity in series [1] is 4.7 mM⁻¹ s⁻¹. Besides, the “incidence of axillary pouch obliteration compared to NEMO-103” value in series [2] is “relatively higher incidence”. Besides, the hydrodynamic size in series [3] is less than 1 nm.
`COc1cccc2c1C(=O)c1c(O)c3c(c(O)c1C2=O)C[C@@](O)(C(=O)CO)C[C@@H]3O[C@H]1C[C@H](N)[C@H](O)[C@H](C)O1` [Doxorubicin]: in series [4], the tumor growth rate result was “reduction in tumor growth rate” and the tumor size entry is recorded as “no significant decrease in tumor size”.

Source of the values: patent publication EP4663206A1, “NEXT-GENERATION ADC LINKER PLATFORM TECHNOLOGY AND POLYSACCHARIDE CROSS-LINKED COLLOIDAL PARTICLE-DRUG CONJUGATE” (Inventera Inc., priority 2023, dated 2024).
